From patent publication US12403184B2, “Compositions and methods for treating neurodegenerative disroders” (priority 2018, dated 2025)
Where no end group is shown, it is not given here.

What was measured:
[1] = 1 mg/kg/day, administered subcutaneously
GST-Drp1 and ATAD3A-Flag = molecular target: T1, GST-Drp1 and ATAD3A-Flag (Homo sapiens, UniProt Q9NVI7); test: GST pulldown assay, in vitro binding of GST-Drp1 and ATAD3A-Flag; settings: GST pull down, peptide 60 μM
T1 construct: Abnova for GST-Drp1 L1170 (TNT kit); no catalogue number printed for GST-Drp1; host or cells: cell-free coupled transcription/translation (ATAD3A-Flag); GST-Drp1 purchased
T1 sequence (Q9NVI7 1-586): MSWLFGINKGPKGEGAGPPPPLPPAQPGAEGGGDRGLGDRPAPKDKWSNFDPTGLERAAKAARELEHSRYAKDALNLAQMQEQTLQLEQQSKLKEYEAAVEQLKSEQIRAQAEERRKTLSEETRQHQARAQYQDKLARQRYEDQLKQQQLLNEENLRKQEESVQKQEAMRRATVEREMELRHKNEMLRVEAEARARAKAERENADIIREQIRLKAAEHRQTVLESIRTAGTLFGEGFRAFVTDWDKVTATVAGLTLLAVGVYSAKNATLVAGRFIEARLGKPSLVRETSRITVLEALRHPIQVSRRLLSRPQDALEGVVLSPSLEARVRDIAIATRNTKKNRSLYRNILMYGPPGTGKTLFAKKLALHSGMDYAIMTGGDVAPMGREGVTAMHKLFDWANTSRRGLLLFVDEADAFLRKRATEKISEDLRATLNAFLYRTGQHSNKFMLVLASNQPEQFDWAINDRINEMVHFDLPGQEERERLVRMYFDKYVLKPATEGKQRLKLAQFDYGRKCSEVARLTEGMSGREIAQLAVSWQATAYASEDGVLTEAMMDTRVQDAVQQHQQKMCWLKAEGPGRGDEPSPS
Source text: Using pcDNA3.1 (+)-ATAD3A-Flag plasmid as template, ATAD3A-Flag protein was synthesized by TNT® Quick Coupled Transcription/Translation System (Promega, Cat #L1170) followed by protein purification with Flag-peptide (Sigma, F3290). The expression of ATAD3A protein was confirmed by western blot analysis with both anti-ATAD3A and anti-Flag antibodies. This approach provides convenient single-tube, coupled transcription/translation reactions for eukaryotic cell-free protein expression and has been used to detect direct protein-protein interaction.
GST-Drp1 or GST control protein were incubated with Glutathione-beads in TBST buffer at r.t. After 1 h of incubation, ATAD3A-Flag protein was added, and thoroughly mixed in vibrating mixer for 30 mins at r.t., then transferred to 4° C. for overnight incubation Immunoprecipitates were then washed for three time and analyzed by SDS-PAGE.
To test the inhibitory function of DA1 peptide on in vitro binding between GST-Drp1 and ATAD3A-Flag, DA1 peptide or control peptide TAT (60 μM, each) was incubated with ATAD3A-Flag protein before mixing with GST-Drp1-glutathione beads complex.

TFAM and mtDNA LSP = test: TFAM-mtDNA binding assay (biotin-streptavidin pull down); type: cell-based, mouse; settings: HdhQ111 cells, relative to TAT
Description: Total lysates were isolated from cells with the indicated treatments, and then incubated with biotinylated LSP DNA probe (Biotin-LSP) or LSP (control) overnight at 4° C. Then streptavidin agarose beads (Thermo Fisher Scientific) were added for 1 h at 4° C. After incubation, the biotinstreptavidin complex was washed 3-5 times (1 ml/time) at 4° C. and subject to western blot analysis. To validate the LSP binding specificity to TFAM, 10 times (molar ratio) of non-labeled LSP was pre-incubated with an equal amount of lysate for 2 h prior to addition of the biotin-LSP probe.

[2] = tested on: neurons derived from HD patients; test: mitoROS (mitoSOX probe) in neurons derived from iPS cells; type: cell-based, human
Description: iPS cells from a normal subject and a HD patient (carrying 41 CAG repeats) were differentiated into neurons using the protocol from our previous studies. Briefly, the iPS cells were plated onto 6-well plates precoated with 2.5% Matrigel and allowed to reach 90% confluence in feeder-free medium. For the first 10 days, the cells were treated with SB431542 (10 μM; Tocris Bioscience) and Noggin (100 ng/ml) in Neural Media (NM) containing Neurobasal and DMEM (1:1), B-27 supplement minus vitamin A (50×, Invitrogen), N2 supplement (100×, Invitrogen), GlutaMax (Invitrogen, 100×), FGF2 ([…]) and EGF ([…]), and 100 units/ml penicillin and 100 μg/ml streptomycin). For the next 10 days, the cells were treated with human recombinant Sonic hedgehog (SHH, 200 ng/ml), DKK1 (100 ng/ml) and BDNF (20 ng/ml), and 10 μM Y27632 (Sigma) in neuronal differentiation medium containing Neurobasal and DMEM (1:3), B27, N2, GlutaMax, and PS. Cells were then switched to treatment with BDNF (20 ng/ml), ascorbic acid (200 μM, Sigma-Aldrich), cAMP (0.5 mM, Sigma-Aldrich), and Y27632 (10 μM) in neuronal differentiation medium. All growth factors were purchased from PeproTech (Rocky Hill, NJ, USA). […]
To examine mitochondrial superoxide production, the cells were stained with MitoSOX (Invitrogen, 5 μM for 10 min) at 37° C. […] At least 150 cells/group were counted and quantitated.

Q: For “YGRKKRRQRRRGGEDKRKT-NH2 [DA1, YGRKKRRQRRR-GG-EDKRKT-NH2]”, which brain entry [1] is on record?
A: Its brain entry is “entered the brain”.

Q: And the “binding of GST-Drp1 and ATAD3A-Flag in vitro” value (GST-Drp1 and ATAD3A-Flag)?
A: The value was “abolished”.

Q: What about the “binding of TFAM and mtDNA” value (TFAM and mtDNA LSP) of the same substance?
A: The value was “restored”.

Q: And the mitoROS [2]?
A: Its mitoROS is “decreased”.
